Source: doi:10.1101/761585v1, “A simple method to determine the elimination half-life of drugs displaying noncumulative toxicity” (bioRxiv, 2019)
Where “and” joins values, the source holds several entries; their conditions need not be identical. Identical values can stand only once.

Legend:
BALB/c mice [1] = experiment: Multi-dose (non)cumulative toxicity, 11 doses at the MND at 12 hour intervals; type: in vivo, mouse
Experimental: Figure 1. All experiments required to determine the elimination half-life using TOXHL. BALB/c mice (6-8 weeks, 20 g) were used for all experiments. (A) Acute toxicity experiments to determine survival vs. concentration of drug injected intraperitoneally. Determining the maximum nonlethal dose (MND), which is the highest concentration of a drug that causes no mortality, is essential for later noncumulative toxicity experiments. Here, the MND for Pexiganan is 32 mg/kg (blue arrow), and the MND for Ω76 is 64 mg/kg (red arrow). (B) Multi-dose (non)cumulative toxicity determination experiments. Here, mice were intraperitoneally injected with 11 doses of drug (at the MND concentration), at 12 hour intervals over the course of 5 days. All mice treated with Pexiganan died, indicating cumulative toxicity. All mice treated with Ω76 survived, indicating noncumulative toxicity. The difference between the survival outcomes of the Ω76 and Pexiganan cohorts are statistically significant (p=7e-3, Fisher’s test). […] 5 doses at the MND were injected intraperitoneally at Δt of 15, 7.5 and 3 minutes. 67% survival (33% mortality) was observed a Δt = 3 minutes (ΔtM, highlighted in yellow). […] Note that a separate set of similar experiments was described in our previous work[19], but these experiments were only used to assess the toxicity of Ω76.
Cumulative toxicity comprises the lethal effects of multiple doses of drug when injected intraperitoneally at MND concentrations. 10 BALB/c mice (6-8 weeks, 20 g) were treated with 11 doses of Pexiganan, administered at the MND (32 mg/kg) at 12 hour intervals, over the course of 5 days. Despite Pexiganan never exceeding the MND concentration, 100% mortality was observed. […] However, this damage is not reversed within the dosing interval timespan (12 hours), and additional doses only serve to incrementally increase the total damage caused to mice, until a threshold is reached and death occurs.
Figure 2. Peritonea of BALB/c mice (6-8 weeks, 20 g) treated with Ω76 and Pexiganan for (non)cumulative toxicity experiments. […]

BALB/c mice [2] = experiment: Acute toxicity, single intraperitoneal dose, 5-day survival; type: in vivo, mouse; details: highest single intraperitoneal dose causing no mortality in BALB/c mice observed for 5 days
Experimental: Acute toxicity comprises the lethal effects of a single dose of a drug, rather than the combined lethal effects of multiple doses of a drug. BALB/c mice (6-8 weeks, 20 g) were injected intraperitoneally with varying doses of Ω76 and Pexiganan, at 2-fold concentration increments. 5 mice per concentration cohort were used. […] Mice treated with both Ω76 and Pexiganan display mortality that increases in a dose-dependent manner. […] However, for TOXHL, determining the maximum nonlethal dose (MND) rather than the LD50 is more important. […] Here, the MND values for Ω76 and Pexiganan are […] (Figure 1A, shown in arrows).
Figure 1. All experiments required to determine the elimination half-life using TOXHL. BALB/c mice (6-8 weeks, 20 g) were used for all experiments. (A) Acute toxicity experiments to determine survival vs. concentration of drug injected intraperitoneally. Determining the maximum nonlethal dose (MND), which is the highest concentration of a drug that causes no mortality, is essential for later noncumulative toxicity experiments. Here, the MND for Pexiganan is 32 mg/kg (blue arrow), and the MND for Ω76 is 64 mg/kg (red arrow). (B) Multi-dose (non)cumulative toxicity determination experiments. Here, mice were intraperitoneally injected with 11 doses of drug (at the MND concentration), at 12 hour intervals over the course of 5 days. […]

[3] = Solubility of peptide stocks in saline vs PBS; type: physicochemical; details: 20 mg/mL stocks prepared in physiological saline (0.8% NaCl)
Experimental: For all experiments described in this work, BALB/c mice (6-8 weeks, 20 g) were housed at the Central Animal Facility (CAF, IISc) and fed ad libitum with pellet feed and water. All animal experiments were approved by the Institutional Animal Ethics Committee, IISc (Project No. CAF/Ethics/550/2017). A detailed description of all methods used is provided in the results section. However, it should be noted that 20 mg/mL stocks for both Ω76 and Pexiganan were prepared in physiological saline (0.8% NaCl) and stored at −80 °C. […] These stocks were diluted in saline to obtain the concentration needed for the specific experiment. All intraperitoneal injections were 200 μL in volume, as larger volumes could alter peritoneal elimination kinetics.

In the case of Pexiganan, the “survival outcome after 11 doses at the MND” value (BALB/c mice [1]; 10 BALB/c mice, 11 intraperitoneal doses at the MND (Pexiganan 32 mg/kg, Ω76 64 mg/kg), 12 hour intervals over 5 days) was “died”, the “mortality after 11 doses at the MND” value (BALB/c mice [1]; 10 BALB/c mice, 11 intraperitoneal doses of Pexiganan at the MND (32 mg/kg), 12 hour intervals over 5 days) was 100% and the “autopsy finding, peritoneal organs” value (BALB/c mice [1]; BALB/c mice, intraperitoneal doses at the MND at 12 hour intervals (Ω76 11 doses of 64 mg/kg over 5 days; Pexiganan 32 mg/kg until mortality)) was “intestinal inflammation is clearly visible”. The “maximum nonlethal dose (MND)” value (BALB/c mice [2]) was 64 mg/kg and 32 mg/kg and the “solubility in phosphate buffered saline (PBS) compared with physiological saline” value [3] was “poorer solubility”.
